Legend:
[1] = system: recombinant human anti-SARS-CoV antibody 03-018; type: binding; parameters: Binding of antibody 03-018 to linear peptides of the N protein of SARS-CoV Urbani / Binding of antibody 03-018 to looped/cyclic peptides of the N protein of SARS-CoV Urbani: unit not given here
[2] = system: antibodies in sera from SARS patients (sera 1a, 1b, 2, 6, 37, 62, London, SARS-yellow, SARS-green); type: binding, human; parameters: Binding of serum 6 to linear peptides of protein X1 of SARS-CoV Urbani / Binding of serum 37 to linear peptides of protein X1 of SARS-CoV Urbani / Binding of serum 6 to looped/cyclic peptide (PEPSCAN-ELISA) / Binding of serum 37 to looped/cyclic peptide (PEPSCAN-ELISA) / Binding of serum 37 to looped/cyclic peptides of protein X1 of SARS-CoV Urbani / Binding of serum 6 to linear peptides of protein X2 / Binding of serum 37 to linear peptides of protein X2 / Binding of serum 37 to looped/cyclic peptides of protein X2 of SARS-CoV Urbani / Binding of serum 6 to linear peptides of protein M of SARS-CoV Urbani / Binding of serum 37 to linear peptides of protein M of SARS-CoV Urbani / Binding of serum 6 to looped/cyclic peptides of protein M of SARS-CoV Urbani / Binding of serum 37 to looped/cyclic peptides of protein M of SARS-CoV Urbani / Binding of serum 6 to linear peptides of protein X3 of SARS-CoV Urbani / Binding of serum 37 to linear peptides of protein X3 of SARS-CoV Urbani / Binding of serum 37 to looped/cyclic peptides of protein X3 of SARS-CoV Urbani / Binding of serum 6 to linear peptides of protein X4 of SARS-CoV Urbani / Binding of serum 37 to linear peptides of protein X4 of SARS-CoV Urbani / Binding of serum 37 to looped/cyclic peptides of protein X4 of SARS-CoV Urbani / Binding of serum 6 to linear peptides of protein X5 of SARS-CoV Urbani / Binding of serum 37 to linear peptides of protein X5 of SARS-CoV Urbani / Binding of serum 37 to looped/cyclic peptides of protein X5 of SARS-CoV Urbani / Binding of serum 6 to linear peptides of protein N of SARS-CoV Urbani / Binding of serum 37 to linear peptides of protein N of SARS-CoV Urbani / Binding of serum 6 to linear peptide (PEPSCAN-ELISA) / Binding of serum 1a to looped/cyclic peptides of protein N of SARS-CoV Urbani / Binding of serum 1b to looped/cyclic peptides of protein N of SARS-CoV Urbani / Binding of serum 2 to looped/cyclic peptides of protein N of SARS-CoV Urbani / Binding of serum 6 to looped/cyclic peptides of protein N of SARS-CoV Urbani / Binding of serum 37 to looped/cyclic peptides of protein N of SARS-CoV Urbani / Binding of serum 62 to looped/cyclic peptides of protein N of SARS-CoV Urbani / Binding of serum London to looped/cyclic peptides of protein N of SARS-CoV Urbani / Binding of serum SARS-green to looped/cyclic peptides of protein N of SARS-CoV Urbani: unit not given here
[3] = system: rabbit serum obtained by immunizing a rabbit with the SARS-CoV strain Frankfurt 1; type: binding; parameters: Binding of a rabbit serum to linear peptides / Binding of a rabbit serum to looped peptides / Rabbit serum linear peptides / Rabbit serum looped peptides / Binding of a rabbit serum to linear peptides of protein N of SARS-CoV Urbani (Rabbit serum linear peptides) / Binding of a rabbit serum to looped/cyclic peptides of protein N of SARS-CoV Urbani (Rabbit serum looped peptides): unit not given here
[4] = system: control sera (pooled serum of ten healthy LUMC hospital workers; commercial negative donor pooled serum from the Dutch bloodbank); type: binding, human; parameters: Binding of Control serum LUMC to linear peptides / Binding of Control serum Blood-bank to linear peptides / Binding of Control serum LUMC to looped peptides / Binding of Control Serum Blood-Bank to Looped peptides / Binding of Control serum LUMC to linear peptides of the protein M of SARS-CoV Urbani / Binding of Control serum Blood-bank to linear peptides of the protein M of SARS-CoV Urbani / Binding of Control serum LUMC to looped peptides of the protein M of SARS-CoV Urbani / Binding of Control Serum Blood-Bank to Looped peptides of the protein M of SARS-CoV Urbani: unit not given here

| Sequence | Binding of antibody 03-018 to linear peptides of the N protein of SARS-CoV Urbani [1] | Binding of antibody 03-018 to looped/cyclic peptides of the N protein of SARS-CoV Urbani [1] | Binding of serum 1a to linear peptide (PEPSCAN-ELISA) [2] | Binding of serum 1a to looped/cyclic peptides of protein N of SARS-CoV Urbani [2] | Binding of serum 1b to linear peptide (PEPSCAN-ELISA) [2] | Binding of serum 1b to looped/cyclic peptides of protein N of SARS-CoV Urbani [2] | Binding of serum 2 to linear peptide (PEPSCAN-ELISA) [2] | Binding of serum 2 to looped/cyclic peptides of protein N of SARS-CoV Urbani [2] | Binding of serum 6 to looped/cyclic peptides of protein N of SARS-CoV Urbani [2] | Binding of serum 37 to looped/cyclic peptides of protein N of SARS-CoV Urbani [2] | Binding of serum 62 to looped/cyclic peptides of protein N of SARS-CoV Urbani [2] | Binding of serum London to looped/cyclic peptides of protein N of SARS-CoV Urbani [2] | Binding of serum SARS-green to looped/cyclic peptides of protein N of SARS-CoV Urbani [2] | Binding of serum SARS-yellow to looped/cyclic peptides of protein N of SARS-CoV Urbani [2] | Binding of a rabbit serum to linear peptides of protein N of SARS-CoV Urbani (Rabbit serum linear peptides) [3] | Binding of a rabbit serum to looped/cyclic peptides of protein N of SARS-CoV Urbani (Rabbit serum looped peptides) [3] | Binding of Control Serum Blood-Bank to Looped peptides [4] | Binding of Control serum Blood-bank to linear peptides [4] | Binding of Control serum LUMC to linear peptides [4] | Binding of Control serum LUMC to looped peptides [4] | other results |
| --- | --- | --- | --- | --- | --- | --- | --- | --- | --- | --- | --- | --- | --- | --- | --- | --- | --- | --- | --- | --- | --- |
| DQDLIRQGTDYKHWP | 0.1 | 0.2 | 0.3 | 0.2 | 0.1 | 0.1 | 0.2 | 0.3 | 0.1 | 0.4 | 0.3 | 0.3 | 0.1 | 0.1 | 0.1 | 0.1 | 0.4 | 0.8 | 0.7 | 0.4 | Binding of serum 6 to linear peptide (PEPSCAN-ELISA) [2]: 0.2; Binding of serum 37 to linear peptide (PEPSCAN-ELISA) [2]: 0.7; Binding of serum 62 to linear peptide (PEPSCAN-ELISA) [2]: 0.6; Binding of serum London to linear peptide (PEPSCAN-ELISA) [2]: 0.8; Binding of serum SARS-green to linear peptide (PEPSCAN-ELISA) [2]: 0.5; Binding of serum SARS-yellow to linear peptide (PEPSCAN-ELISA) [2]: 0.7 |
| TRNPNNNAATVLQLP | 0.1 | 0.2 |  | 0.4 |  | 0.3 |  | 0.7 | 0.3 | 0.6 | 0.5 | 0.5 | 0.8 | 0.5 | 0.1 | 0.5 | 0.8 | 0.7 | 0.8 | 0.7 | Binding of serum 1a to linear peptides of protein N of SARS-CoV Urbani [2]: 0.3; Binding of serum 1b to linear peptides of protein N of SARS-CoV Urbani [2]: 0.1; Binding of serum 2 to linear peptides of protein N of SARS-CoV Urbani [2]: 0.3; Binding of serum 6 to linear peptides of protein N of SARS-CoV Urbani [2]: 0.2; Binding of serum 37 to linear peptides of protein N of SARS-CoV Urbani [2]: 0.6; Binding of serum 62 to linear peptides of protein N of SARS-CoV Urbani [2]: 0.7; Binding of serum London to linear peptides of protein N of SARS-CoV Urbani [2]: 0.5; Binding of serum SARS-green to linear peptides of protein N of SARS-CoV Urbani [2]: 0.3; Binding of serum SARS-yellow to linear peptides of protein N of SARS-CoV Urbani [2]: 0.7 |
| KDKKKKTDEAQPLPQ | 0.1 | 0.2 |  | 0.2 |  | 0.1 |  | 0.2 | 0.2 | 0.4 | 0.3 | 0.4 | 0.1 | 0.1 | 0.1 | 0.0 |  |  |  |  | Binding of serum 1a to linear peptides of protein N of SARS-CoV Urbani [2]: 0.2; Binding of serum 1b to linear peptides of protein N of SARS-CoV Urbani [2]: 0.1; Binding of serum 2 to linear peptides of protein N of SARS-CoV Urbani [2]: 0.2; Binding of serum 6 to linear peptides of protein N of SARS-CoV Urbani [2]: 0.2; Binding of serum 37 to linear peptides of protein N of SARS-CoV Urbani [2]: 0.7; Binding of serum 62 to linear peptides of protein N of SARS-CoV Urbani [2]: 0.6; Binding of serum London to linear peptides of protein N of SARS-CoV Urbani [2]: 0.6; Binding of serum SARS-green to linear peptides of protein N of SARS-CoV Urbani [2]: 0.5; Binding of serum SARS-yellow to linear peptides of protein N of SARS-CoV Urbani [2]: 0.5; Control Serum Blood-Bank Looped peptides [4]: 0.5; Control serum Blood-bank linear peptides [4]: 0.6; Control serum LUMC linear peptides [4]: 0.6; Control serum LUMC looped peptides [4]: 0.4 |
| AEGSRGGSQASSRSS | 0.1 | 0.2 | 0.3 | 0.4 | 0.2 | 0.2 | 0.3 | 0.4 | 0.5 | 0.5 | 0.5 | 0.4 | 0.4 | 0.4 | 0.2 | 0.6 | 0.6 | 0.8 | 0.8 | 0.8 | Binding of serum 6 to linear peptide (PEPSCAN-ELISA) [2]: 0.3; Binding of serum 37 to linear peptide (PEPSCAN-ELISA) [2]: 0.7; Binding of serum 62 to linear peptide (PEPSCAN-ELISA) [2]: 0.7; Binding of serum London to linear peptide (PEPSCAN-ELISA) [2]: 0.5; Binding of serum SARS-green to linear peptide (PEPSCAN-ELISA) [2]: 0.4; Binding of serum SARS-yellow to linear peptide (PEPSCAN-ELISA) [2]: 0.6 |

Reference: US20070128217A1 (priority 2003, published 2007)
